Measurements from patent US12187761B2, “Compounds, compositions, and methods for the treatment of disease” (F-star Therapeutics, Inc., priority 2017, dated 2025).

Experiments:
IRF = test: Induction of IRF in THP1 dual cells (ISG54 promoter Lucia reporter); type: cell-based; settings: 20 h incubation, Lucia reporter (QUANTI-luc)
Method: (§1) Example 6. In Vitro Induction of IRF and NF-κβ in THP1 Cells Table 2
(§2) THP1 dual cells grown in complete media were treated with various concentrations of a compound of the present disclosure or DMSO control. Dual cells carry both secreted embryonic alkaline phosphatase (SEAP) reporter gene under the control of an IFN-β minimal promoter fused to five copies of the NF-kB consensus transcriptional response element to measure NF-kB activity and Lucia reporter gene under the control of an ISG54 minimal promoter to measure IRF activity. After 20 h incubation, IRF activity was assessed using QUANTI-luc to measure levels of Lucia and NF-kB activity was determined by measure SEAP levels at 620-655 nm. % induction was calculated from fold change in luminescence/absorbance compared to DMSO treated sample. […] EC50 values were generated by curve fit in Xlfit.
(§3) Cells grown in complete media were treated with various concentrations of a compound of the disclosure or DMSO control. Dual cells carry both secreted embryonic alkaline phosphatase (SEAP) reporter gene under the control of an IFN-β minimal promoter fused to five copies of the NF-kB consensus transcriptional response element to measure NF-kB activity and Lucia reporter gene under the control of an ISG54 minimal promoter to measure IRF activity. After 20 h incubation, IRF activity was assessed using QUANTI-luc to measure levels of Lucia and NF-kB activity was determined by measure SEAP levels at 620-655 nm. % induction was calculated from fold change in luminescence/absorbance compared to DMSO treated sample. EC50 values are generated by curve fit in Xlfit.

NF-κβ = test: Induction of NF-κβ in THP1 dual cells (SEAP reporter); type: cell-based; settings: 20 h incubation, SEAP levels at 620-655 nm
Method: as §1, §2, §3

| SMILES | EC50 (IRF) [nM] | EC50 (NF-κβ) [nM] |
| --- | --- | --- |
| NCCCOCCOCCOCCOc1ccc(C(=O)Oc2ccc(CSP3(=O)OC[C@H]4O[C@@H](n5cnc6c(N)ncnc65)[C@H](F)[C@@H]4OP(=O)(O)OC[C@H]4O[C@@H](n5ccc(=O)[nH]c5=O)[C@H](F)[C@@H]4O3)cc2)cc1 (some centres unmarked) [Compound 7] | 50 to 500 | 1000 to 2000 |
| Nc1ncnc2c1ncn2[C@@H]1O[C@@H]2COP(=O)(SCc3ccc(OC(=O)c4ccc(OCCCCCCCCCCO)cc4)cc3)O[C@H]3[C@@H](F)[C@H](n4ccc(=O)[nH]c4=O)O[C@@H]3COP(=O)(O)O[C@H]2[C@H]1F (some centres unmarked) [Compound 2] | < 50 | 500 to 1000 |
| NCCCCCCCCCCOc1ccc(C(=O)Oc2ccc(CSP3(=O)OC[C@H]4O[C@@H](n5cnc6c(N)ncnc65)[C@H](F)[C@@H]4OP(=O)(O)OC[C@H]4O[C@@H](n5ccc(=O)[nH]c5=O)[C@H](F)[C@@H]4O3)cc2)cc1 (some centres unmarked) [Compound 1] | < 50 | 500 to 1000 |
| C=CCCC(=O)NCCCCCCCCCCCCOc1ccc(C(=O)Oc2ccc(CSP3(=O)OC[C@H]4O[C@@H](n5cnc6c(N)ncnc65)[C@H](F)[C@@H]4OP(=O)(O)OC[C@H]4O[C@@H](n5ccc(=O)[nH]c5=O)[C@H](F)[C@@H]4O3)cc2)cc1 (some centres unmarked) [Compound 8] | 1000 to 2000 | > 2000 |
